# Patent US20190136302A1, “METHODS FOR DETECTING OLIGONUCLEOTIDES IN A SAMPLE” (THE REGENTS OF THE UNIVERSITY OF CALIFORNIA, priority 2016, published 2019)
# What was measured:
# [1] = system: Capture Control SMO oligo; experiment: ELOSA competition with Control SMO capture oligonucleotide and HRP-Control SMO; assay type: binding; conditions: test oligo 5 pmoles; HRP-Control SMO 1 pmole; Capture Control SMO 5 pmoles
# Experimental: The capture reagent was synthesized using a sequence antisense to the test oligonucleotide, along with an amino-terminus and a 12 carbon aliphatic spacer. The amino-terminus allows binding to the wells of a 96-well, polystyrene DNA-binding plate and the spacer minimizes steric hindrance during hybridization of the test oligonucleotides. […]
# (§1) After washing (3 times with 0.05M TrisHCl (pH 8)—1 mM EDTA), the plate was blocked to reduce non-specific binding (200 μl 3% bovine serum albumin—0.05M TrisHCl (pH 8)—1 mM EDTA at 37° C. for 4 h).
# After washing 3 times, the test oligo and a constant concentration of horseradish peroxidase-labeled oligonucleotide (i.e., the competition oligonucleotide with a sequence the same as test oligo) was incubated with the capture reagent. The amount of competition oligonucleotide hybridized to the capture reagent is inversely proportional to the total amount of test oligonucleotide present. […] Incubations were at 37° C. for 15 h.
# After washing 3 times with TBST, the competition oligonucleotide bound to the capture reagent was measured using 100 μl 0.1 mg/ml TMB—1% hydrogen peroxide. After color development, the reaction was stopped with 50 μl 1N H2SO4, and the amount of colored product was measured spectrophotometrically at A450. […]
# Capture PRLR SMO oligo = experiment: ELOSA competition with PRLR SMO capture oligonucleotide and HRP-PRLR SMO; assay type: binding, mouse; conditions: for hybridization to Capture PRLR SMO / displacement of HRP-PRLR SMO (absorbance): PRLR SMO capture oligonucleotide at increasing concentrations, mouse sequences
# Experimental: The capture reagent was synthesized using a sequence antisense to the test oligonucleotide, along with an amino-terminus and a 12 carbon aliphatic spacer. The amino-terminus allows binding to the wells of a 96-well, polystyrene DNA-binding plate and the spacer minimizes steric hindrance during hybridization of the test oligonucleotides. The capture reagent (2 picomoles/well) was incubated in 100 μl 0.05M phosphate (pH 8.5) —1 mM EDTA at 4° C. for 24 h or longer.
# as §1
# After washing 3 times, the test oligo and a constant concentration of horseradish peroxidase-labeled oligonucleotide (i.e., the competition oligonucleotide with a sequence the same as test oligo) was incubated with the capture reagent. The amount of competition oligonucleotide hybridized to the capture reagent is inversely proportional to the total amount of test oligonucleotide present. Incubations were in a total final volume of 100 μl in 0.05M TrisHCl (pH 7.5)—1 mM EDTA, with Test oligo (variable doses up to 1 pmole), constant HRP-Oligo (0.5-1 pmole), and a total serum volume of 10 to 25 μl. Incubations were at 37° C. for 15 h.
# After washing 3 times with TBST, the competition oligonucleotide bound to the capture reagent was measured using 100 μl 0.1 mg/ml TMB—1% hydrogen peroxide. After color development, the reaction was stopped with 50 μl 1N H2SO4, and the amount of colored product was measured spectrophotometrically at A450.
# For clarity, the PRLR SMO vivo-morpholino is referred to as Antimaia to distinguish it from the oligonucleotides being used for competition or capture, which are called HRP-PRLR SMO and capture PRLR SMO, respectively. […] The methods used for these experiments are described in Example 1.
# [2] = system: prolactin receptor (PRLR); conditions: treatment with PRLR SMO; cited from earlier work
# [3] = system: orthotopic models of breast cancer; conditions: cited from earlier work
Substance,competition with HRP-Control SMO for binding to the Capture Control SMO [1],hybridization to Capture PRLR SMO / displacement of HRP-PRLR SMO (absorbance) (Capture PRLR SMO oligo),effect on PRLR splice forms [2],tolerability ([3]; in vivo),reduction in metastatic spread ([3]; two orthotopic models of breast cancer) [%],"sensitivity of the assay (Capture PRLR SMO oligo; Capture PRLR SMO 2 pmoles, HRP-PRLR-SMO 0.5 pmole, presence of serum) [pmol]","competition easily detected above (Capture PRLR SMO oligo; capture reagent 2 pmoles, HRP-PRLR SMO in the 0.5 pmole range, presence of serum)"
"5′-AAAAAAGACGAGATTCGATCGGAGTAAAA-3′ (SEQ ID NO: 1) (all phosphorodiamidate morpholino (PMO); vivo-morpholino: octaguanidine derivatization attached, position not given here) [Control SMO, reference compound]",competed,did not hybridize,–,–,–,–,–
"5′-AAAAAGCCCTTCTATTGAAACACAGATACAAAA-3′ (SEQ ID NO: 4) (all phosphorodiamidate morpholino (PMO); vivo-morpholino: octaguanidine derivatization attached, position not given here; listed as Mus sp.) [Antimaia, vivo-morpholino splice-modulating oligomer for the prolactin receptor, phosphorodiamidate morpholino backbone and octaguanidine derivatizations]",essentially no effect,displaced HRP-PRLR SMO,loss of the growth-promoting PRLR without loss of the growth-inhibiting splice form of the PRLR,well-tolerated,80,0.25,above 0.2 pmoles
